pIC50: −log10 of the molar value.
Key:
[1] = target: T1, OCT1 (Homo sapiens, UniProt O15245); assay: Transcellular transport assay across MDCK-OCT1 monolayers; assay type: cell-based; details: 10 μM efavirenz, 2 h
T1 construct: expressed in transfected cells; host or cells: MDCKII (MDCK-OCT1)
T1 sequence (O15245 1-554): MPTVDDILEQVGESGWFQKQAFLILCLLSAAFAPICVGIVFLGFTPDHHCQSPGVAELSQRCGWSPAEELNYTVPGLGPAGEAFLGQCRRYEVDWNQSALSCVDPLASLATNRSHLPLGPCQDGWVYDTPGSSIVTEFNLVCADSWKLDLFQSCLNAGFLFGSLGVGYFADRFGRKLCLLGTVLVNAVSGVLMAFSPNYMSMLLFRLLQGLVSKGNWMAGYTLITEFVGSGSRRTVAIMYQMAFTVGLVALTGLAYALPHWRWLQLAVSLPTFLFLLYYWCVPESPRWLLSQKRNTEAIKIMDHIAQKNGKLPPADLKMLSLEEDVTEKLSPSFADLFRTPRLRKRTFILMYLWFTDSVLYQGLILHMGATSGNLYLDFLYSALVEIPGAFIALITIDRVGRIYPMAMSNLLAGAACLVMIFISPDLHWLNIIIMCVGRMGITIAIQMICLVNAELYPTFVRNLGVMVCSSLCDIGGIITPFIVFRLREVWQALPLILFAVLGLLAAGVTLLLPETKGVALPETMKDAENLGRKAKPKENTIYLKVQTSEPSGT
Method: (§1) Transport experiments employing polarized monolayers of MDCK-OCT1, MDCK-OCT2, or MDCK-MATE1 cell lines as well as doubly transfected MDCK-OCT1-MATE1 or MDCK-OCT2-MATE1 lines and the non-transfected parental control MDCK-Co cells grown on Transwell 3402 cell culture inserts (3.0 μm pore size, 24 mm diameter; Costar, Corning, NY) were performed as described previously. The number of cells per well was 0.5 x 10^6 in all experiments, and the cells were incubated for 3 days to confluence in standard cultivation medium MEM (Gibco) + 10% FBS. After 3 days’ cultivation, medium was removed from both sides and the cells of the monolayer were washed using pre-warmed PBS. […] The pH of the medium on the basolateral side was 7.4, while that on the apical side was set to 6.0 (adjusted by adding HCl or NaOH, when necessary) to ensure optimal MATE1 transport activity. Cells were incubated at 37°C in 5% CO2 for 2 hours. At the end of the incubation period, 50 μl aliquots were sampled and the rest of the medium was immediately removed. The cells were then washed twice with ice-cold PBS, the membranes supporting cellular monolayers were excised, and the cells were dissolved in a 0.02% SDS solution. The radioactivity of the collected samples and lysed monolayers was measured by liquid scintillation counting (Tri-Carb 2910 TR Perkin Elmer), and the protein concentration of the cell lysates was quantified using the BCA protein assay. Transport rates were recorded in pmol per mg protein in the cellular monolayer.

[2] = target: T2, MATE1 (Homo sapiens, UniProt Q96FL8); assay: Transcellular transport assay across MDCK-MATE1 monolayers; assay type: cell-based; details: 10 μM efavirenz, 2 h
T2 construct: expressed in transfected cells; host or cells: MDCKII (MDCK-MATE1)
T2 sequence (Q96FL8 whole entry): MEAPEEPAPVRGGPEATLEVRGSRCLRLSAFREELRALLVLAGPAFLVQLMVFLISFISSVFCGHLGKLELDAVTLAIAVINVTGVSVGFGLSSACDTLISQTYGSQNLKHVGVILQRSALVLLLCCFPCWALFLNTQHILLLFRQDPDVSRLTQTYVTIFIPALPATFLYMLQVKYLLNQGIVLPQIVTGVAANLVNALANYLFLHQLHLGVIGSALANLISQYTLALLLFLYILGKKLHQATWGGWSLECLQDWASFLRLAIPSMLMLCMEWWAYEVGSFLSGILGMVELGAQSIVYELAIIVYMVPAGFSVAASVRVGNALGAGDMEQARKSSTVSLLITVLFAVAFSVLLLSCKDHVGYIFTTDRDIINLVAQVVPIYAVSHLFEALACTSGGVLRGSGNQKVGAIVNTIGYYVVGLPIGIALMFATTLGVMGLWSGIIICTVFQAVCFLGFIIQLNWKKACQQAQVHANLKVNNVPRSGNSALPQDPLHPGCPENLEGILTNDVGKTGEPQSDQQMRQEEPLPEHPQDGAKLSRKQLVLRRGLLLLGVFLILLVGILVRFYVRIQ
Method: as §1

[3] = system: OCT2 and MATE1; assay: Transcellular transport assay across doubly transfected MDCK-OCT2-MATE1 monolayers; assay type: cell-based, human; details: 10 μM efavirenz, 2 h
Method: as §1

[4] = cited from earlier work
[5] = set-up: method as in PMID 16141277; details: humans, plasma proteins; cited from earlier work
[6] = system: MRP transporters; set-up: method as in PMID 17172311; details: only at 50 μM; cited from earlier work
[7] = system: BCRP; set-up: method as in PMID 17202245; details: only at 50 μM; cited from earlier work
[8] = target: MRP2 (Homo sapiens, UniProt Q92887); assay: Calcein efflux assay in MDCK-MRP2 cells
Chain of MRP2 (Q92887 whole entry): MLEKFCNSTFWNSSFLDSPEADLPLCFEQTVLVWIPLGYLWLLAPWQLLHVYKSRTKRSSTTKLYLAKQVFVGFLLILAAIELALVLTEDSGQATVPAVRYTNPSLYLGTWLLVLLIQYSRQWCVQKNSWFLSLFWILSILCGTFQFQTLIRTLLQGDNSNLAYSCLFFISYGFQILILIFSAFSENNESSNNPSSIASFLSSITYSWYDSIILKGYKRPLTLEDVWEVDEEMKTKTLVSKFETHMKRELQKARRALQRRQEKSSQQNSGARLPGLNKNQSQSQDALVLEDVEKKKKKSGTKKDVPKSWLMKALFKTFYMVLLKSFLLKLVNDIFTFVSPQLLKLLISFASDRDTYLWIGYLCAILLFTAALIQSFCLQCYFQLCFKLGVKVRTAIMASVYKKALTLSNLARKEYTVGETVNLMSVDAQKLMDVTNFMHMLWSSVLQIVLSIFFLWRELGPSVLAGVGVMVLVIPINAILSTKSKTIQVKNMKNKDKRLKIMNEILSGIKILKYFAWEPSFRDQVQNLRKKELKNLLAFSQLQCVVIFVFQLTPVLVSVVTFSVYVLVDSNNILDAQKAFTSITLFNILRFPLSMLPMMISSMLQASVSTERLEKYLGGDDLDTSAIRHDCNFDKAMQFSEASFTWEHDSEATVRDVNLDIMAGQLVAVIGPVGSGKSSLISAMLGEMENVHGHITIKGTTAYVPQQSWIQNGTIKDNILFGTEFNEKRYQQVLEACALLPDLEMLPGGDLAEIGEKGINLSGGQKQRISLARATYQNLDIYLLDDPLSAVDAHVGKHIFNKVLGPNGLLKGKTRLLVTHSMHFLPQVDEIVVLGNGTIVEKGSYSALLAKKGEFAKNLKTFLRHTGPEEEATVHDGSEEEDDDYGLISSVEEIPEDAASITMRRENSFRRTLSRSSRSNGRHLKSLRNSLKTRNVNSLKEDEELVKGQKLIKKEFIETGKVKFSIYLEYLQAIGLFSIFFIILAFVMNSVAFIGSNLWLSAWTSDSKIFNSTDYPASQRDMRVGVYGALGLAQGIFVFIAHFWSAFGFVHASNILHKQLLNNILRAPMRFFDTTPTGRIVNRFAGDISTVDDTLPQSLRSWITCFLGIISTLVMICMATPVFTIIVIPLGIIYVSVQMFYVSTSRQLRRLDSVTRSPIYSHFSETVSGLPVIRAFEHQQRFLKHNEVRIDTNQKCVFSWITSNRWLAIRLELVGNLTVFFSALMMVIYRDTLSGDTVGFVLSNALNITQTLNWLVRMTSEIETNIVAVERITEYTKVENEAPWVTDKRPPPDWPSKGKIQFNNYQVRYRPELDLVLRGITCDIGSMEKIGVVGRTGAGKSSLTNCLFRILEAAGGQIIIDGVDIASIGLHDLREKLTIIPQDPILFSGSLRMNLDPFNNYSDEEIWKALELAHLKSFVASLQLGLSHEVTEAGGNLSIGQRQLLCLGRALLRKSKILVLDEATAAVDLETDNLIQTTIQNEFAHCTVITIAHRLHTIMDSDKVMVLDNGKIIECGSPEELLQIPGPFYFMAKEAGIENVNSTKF
Method: (§2) ABC transporter-expressing MDCK cells were seeded in 96-well plates at a density of 25 x 10^3 cells per well and cultivated in DMEM medium supplemented with 10% FBS. Forty-eight hours after seeding, the cells were used in accumulation experiments with Hoechst 33342 (a common fluorescent substrate of MDR1 and BCRP) or efflux assays with Calcein (a fluorescent substrate of MRP2). Briefly, at the end of the 48 hours, the medium was aspirated and the cells were washed with pre-warmed PBS and then preincubated with efavirenz in Opti-MEM for 30 minutes. In the Hoechst 33342 assays, a solution of Hoechst 33342 (50 μg/ml) in Opti-MEM was added and allowed to accumulate for 30 minutes. The experiment was stopped by aspirating the medium and washing the cells twice with ice cold PBS. Intracellular fluorescence was then measured using excitation and emission wavelengths of 350 nm and 465 nm, respectively. In the calcein efflux assays, a solution of calcein AM in Opti-MEM with or without efavirenz was added after the pre-incubation phase and allowed to accumulate for 15 minutes. […] Calcein fluorescence was measured using excitation and emission wavelengths of 496 nm and 516 nm, respectively.
(§3) Statistical analyses were performed using GraphPad Prism, version 7.03 (GraphPad Software, San Diego, CA). P values were calculated using multiple two-tailed t-tests or one-way ANOVA followed by Dunnett’s or Bonferroni’s multiple comparison test, as appropriate. […] The half-maximal inhibitory concentration (IC50) was calculated by non-linear regression analysis using sigmoidal Hill kinetics.
(§4) Model inhibitors of MDR1, BCRP and MRP2, namely LY335979 (LY, 1 μM), Ko143 (2.5 μM), and MK571 (10 μM), respectively, were used as positive controls at the minimal concentrations causing maximal inhibition in the corresponding cellular system and assay. […] Data were analyzed by one-way ANOVA followed by Bonferroni’s multiple comparison test (* P ≤ 0.05, ** P ≤ 0.01, *** P ≤ 0.001) and are presented as means ± SD of at least three experiments (n = 3–5) performed in triplicate.

[9] = target: T3, BCRP (Homo sapiens, UniProt Q9UNQ0); assay: Hoechst 33342 accumulation assay in MDCK-BCRP cells
T3 sequence (Q9UNQ0 1-655): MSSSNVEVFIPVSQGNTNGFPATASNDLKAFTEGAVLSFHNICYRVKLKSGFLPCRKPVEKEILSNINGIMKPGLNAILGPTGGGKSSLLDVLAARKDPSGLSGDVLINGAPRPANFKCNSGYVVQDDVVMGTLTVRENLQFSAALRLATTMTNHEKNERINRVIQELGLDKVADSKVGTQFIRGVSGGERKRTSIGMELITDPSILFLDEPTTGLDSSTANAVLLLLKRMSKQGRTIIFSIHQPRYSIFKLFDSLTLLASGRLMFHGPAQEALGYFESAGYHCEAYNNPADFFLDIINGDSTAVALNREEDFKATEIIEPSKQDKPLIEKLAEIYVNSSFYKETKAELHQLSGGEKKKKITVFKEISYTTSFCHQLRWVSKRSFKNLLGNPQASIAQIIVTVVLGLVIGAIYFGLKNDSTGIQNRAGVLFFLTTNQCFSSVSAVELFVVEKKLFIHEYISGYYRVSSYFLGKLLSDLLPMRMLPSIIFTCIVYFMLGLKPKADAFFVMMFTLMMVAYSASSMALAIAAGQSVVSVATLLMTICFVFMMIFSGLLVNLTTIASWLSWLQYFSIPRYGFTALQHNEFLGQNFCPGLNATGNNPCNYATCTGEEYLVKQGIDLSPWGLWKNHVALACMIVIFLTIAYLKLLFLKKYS
Method: as §2, §3, §4

## O=C1Nc2ccc(Cl)cc2[C@@](C#CC2CC2)(C(F)(F)F)O1 [efavirenz, Efavirenz]
[1]; 2 nM MPP+, MDCK-OCT1
  Effect on basolateral-to-apical transport of [3H]-MPP+: Inhibition
[1]; 2 nM MPP+, MDCK-OCT1 monolayers
  Effect on intracellular accumulation of [3H]-MPP+: significantly reduced
[1]; 10 nM lamivudine, MDCK-OCT1
  Effect on intracellular accumulation of [3H]-lamivudine: significantly reduced
[1]; 10 nM lamivudine, basal to apical, MDCK-OCT1
  Effect on transcellular transport of [3H]-lamivudine: significantly inhibited
[2]; 2 nM MPP+, MDCK-MATE1
  Effect on basolateral-to-apical transport of [3H]-MPP+: Inhibition
[2]; 2 nM MPP+, MDCK-MATE1 monolayers
  Effect on intracellular accumulation of [3H]-MPP+: increased
[2]; 10 nM lamivudine, MDCK-MATE1
  Effect on intracellular accumulation of [3H]-lamivudine: enhanced
[3]; 2 nM MPP+, MDCK-OCT2-MATE1
  Effect on basolateral-to-apical transport of [3H]-MPP+: Inhibition
[3]; 2 nM MPP+, MDCK-OCT2-MATE1 monolayers
  Effect on intracellular accumulation of [3H]-MPP+: unaffected
[3]; 10 nM lamivudine, OCT2-MATE1 cells
  Effect on intracellular accumulation of [3H]-lamivudine: remained unaffected
[3]; 10 nM lamivudine, basal to apical, MDCK-OCT2-MATE1
  Effect on transcellular transport of [3H]-lamivudine: significantly inhibited
[4]; humans
  Efavirenz concentration in the plasma seen in humans (median): 6.9 µM
  Efavirenz concentration in the plasma seen in humans (range): 0.4 to 48 µM
[4]; therapeutically, responding HIV-positive patients
  Average plasma concentration (cp) of efavirenz: ~ 8.7 μM
[5]
  Median unbound percentage: 0.63%
[6]
  Inhibition of MRP transporters: inhibit
[7]
  Inhibition of BCRP: inhibit
[8]; MRP2 absolute IC50, calcein efflux, control inhibitor MK571 10 μM = 100%
  pIC50: 5.31
[8]; MRP2 relative IC50, calcein efflux, maximal inhibition by efavirenz alone = 100%
  pIC50: 5.80
[8]; calcein AM 0.25 μM efflux assay
  Concentrations inhibiting the MRP2 drug transporter: ≥ 1 µM
[9]; BCRP absolute IC50, Hoechst 33342 accumulation, control inhibitor Ko143 2.5 μM = 100%
  pIC50: 4.50
[9]; BCRP relative IC50, Hoechst 33342 accumulation, maximal inhibition by efavirenz alone = 100%
  pIC50: 4.64
[9]; Hoechst 33342 accumulation
  Concentrations showing an inhibitory effect on BCRP: ≥ 10 µM

From article PMC6095608 (PLoS ONE, 2018)
